Assay results published in patent US20130143825A1, “COMPOUNDS FOR USE IN THE TREATMENT OF DISEASES BASED ON THE EXPRESSION OF TOXIC TRANSCRIPTS” (UNIVERSITAT DE VALENCIA, priority 2010, published 2013).
Non-standard residues stand in square brackets, D forms with d. Residues, ends and D or L forms follow the SMILES beside them. No end group written: not given here.

What was measured:
FVB wild strain mice = assay: Toxicity of p10 in mammals, intramuscular injection; type: in vivo
Description: In order to study the possible toxic effect of p10 in mammals and establishing the maximum tolerable dose for subsequent assays, the peptide was administered to mice from the FVB wild strain. Due to the low absorption of peptides by the intestinal walls, it was decided to perform intramuscular injections in the anterior tibial muscle of animals 4-5 weeks of age, using four different doses (0.5 μg, 1 μg, 10 μg and 100 μg), with a total of 6 mice per dose (3 females and 3 males). 4 weeks after the injection, the animals were sacrificed and a visual autopsy was performed, jointly with a histomorphological study of the muscle and a blood test (FIG. 31). As a control, animals injected with the same quantity of DMSO (0.2% for the 0.5-μg and 1-μg doses, and 2% for the 10-μg and 100-μg doses) were used.
However, the blood tests did show differences between the treated animals and the control. As a marker of renal activity, we measured the quantity of […], urea and creatinine in the blood. The creatine phosphokinase (CPK) enzyme was used as a marker of damage to the skeletal muscle and the heart, and alkaline phosphatase (AP), gamma-glutamyl transpeptidase (GGT) and glutamate pyruvate transaminase (GPT) were used as markers of hepatic damage. […] This could be due to the toxicity of DMSO or to the injection itself. […] Urea is the final result of protein metabolism. It is formed in the liver and eliminated in the urine. If the kidney is not functioning correctly, urea accumulates in the blood. GPT is an enzyme that is present in the liver at a high concentration and, to a lower extent, in the kidneys, the heart and the muscles. When there is an injury in these organs, the enzyme is released into the blood and appears high in tests. Moreover, it is worth noting that two of the mice treated with the 100-μg dose died approximately 11 days after the injection (p/i), which confirms the toxicity of p10 when it exceeds a threshold value. It was possible to extract blood from one of these two animals just before it died.

[1] = tested on: 103Y-Gal4/+;UAS-CTG(480)/+ flies; assay: Lethality phenotype in pupae caused by expression of 480 CTG under 103Y-Gal4 (females born); type: in vivo, Drosophila; set-up: key to Treated born/Control born: —: - indicates that no females were born, in neither the control tubes and the treated tubes; details: 80 μM; females born vs DMSO control; * p-value <0.05
Description: The 120 vials that make up the chemical library were individually assayed on the lethality phenotype in pupae caused by the expression of 480 CTG under the control of 103Y-Gal4 at a concentration of 80 μM. […] Thus, for positions O1, O2, O3, O4, O5 and O6 of the hexapeptide, a total of six, three, six, four, two and seven active amino acids were obtained, respectively (FIG. 2A). In order to perform the deconvolution, 10 of these 28 amino acids were selected, on the basis of their degree of activity in the biological assay (FIG. 2A). Finally, of the possible combinations, 16 sequences were selected to perform the synthesis of the defined hexapeptides (FIG. 2B). The selection of these 16 peptides was based on redundancy criteria between the physical and chemical properties of active amino acids in similar positions.
At 250 μM, the activity of the peptide decreased, possibly due to a toxic effect of the peptide at higher concentrations.
In order to determine the contribution of each of the p10 residues to their activity on CTG(480), an alanine scanning experiment was performed. These experiments are based on substituting every amino acid of the peptide with alanine and keeping the rest. Alanine is a small amino acid and, in general, not very active; this is why it is used for this type of studies. Since each alanine substitution examines the contribution of an individual amino acid, this experiment makes it possible, on the one hand, to evaluate whether p10 is susceptible to optimisation (in the event that a substitution increases the efficacy of the molecule), or to determine which amino acids are important for its function (in the event that a substitution decreases the activity thereof). The sequence of p10 allows for 5 substitutions; for this reason, 5 new hexapeptides were synthesised which were assayed in relation to the lethality phenotype in 103Y-Gal4; UAS-CTG(480)/+ flies and commercial food.

[2] = tested on: 103Y-Gal4/+;UAS-CTG(480)/+ flies; assay: as above; type: in vivo, Drosophila; set-up: key: —: - indicates that no females were born, in neither the control tubes and the treated tubes; details: females born vs DMSO control
2-AP-(CUG)23 RNA = assay: 2-aminopurine fluorescence assay (hairpin opening); type: biochemical; details: 100 μM
Description: Measurements of the fluorescence emitted (Y-axis), measured as relative fluorescence units (RFU), by 2-aminopurine in a (CUG)23 RNA (1 μM) in the presence of MblZF (0.1 μM, 1 μM, 2 μM and 5 μM) (A) or p10 (0.1 μM, 1 μM, 2 μM, 5 μM and 100 μM) (B), relative to the fluorescence emitted by the free RNA. p10 caused a 2.9-increase in the fluorescence of 2-AP at 100 μM, which indicates a change towards single-stranded. This effect was not observed when incubating the RNA with DMSO, or with the alanine scanning peptides with sequences: ppyawa and payawe (C).
In order to confirm whether said changes cause a loss of the hairpin loop structure, an experiment was performed using an RNA composed of 23 CUG repeats, wherein a guanine had been substituted with its analogue 2-aminopurine (2-AP-(CUG)23). When 2-AP is in a single-stranded environment, it emits fluorescence at 375 nm. […] However, upon increasing the concentration of p10 to 100 μM (RNA:peptide 1:100), the 2AP-(CUG)23 RNA underwent a conformational change, from double-stranded to single-stranded, with a 2.9-fold increase in the fluorescence emission of the molecule (FIG. 28B). In order to confirm the specificity of this effect, the same experiment was performed, incubating the alanine scanning peptides (payawe and ppyawa) with the 2-AP-(CUG)23 RNA at the same concentration as p10 (100 μM).
As may be observed in FIG. 29, in this example we use the 2-aminopurine assay in order to assay 4 peptides (p11, p5, p12 and p15) in addition to p10, obtained from the deconvolution of the combinatorial peptide library explained in this invention. […] The concentration used in all cases is 100 μM.

[3] = tested on: GMR-Gal4 UAS-CTG(480) flies; assay: Endogenous expression of p10-derived peptides (Gal4/UAS), rough eye phenotype; type: in vivo, Drosophila
From the text: Thus, three different transgenes were designed, with SEQ ID NO: 17-19 (p17-p19), which encoded different peptides, all based on sequence SEQ ID NO: 10 corresponding to p10 (FIG. 9), taking into consideration the codon usage bias in Drosophila (i.e. favouring the use of G, and in particular C, in the synonymous sites; Powell & Moriyama, 1997) and adding an initial Methionine, as well as three spacer Glycines, to sequence SEQ ID NO: 10. Moreover, upstream from the […] initiation codon, 21 nucleotides of the 5′UTR end of the act5C gene of Drosophila which included the Kozak sequence were added, in order to enhance the expression of the transgenes.
p17 contained the direct sequence of the peptide of SEQ ID NO: 10. As discussed above, the peptides in the hexapeptide chemical library are composed of D-amino acids. The D-forms (dextrogyre) of amino acids are stereoisomers of the L-forms (levogyres) and only L-amino acids are synthesised in the cells and incorporated into proteins. Consequently, if the arrangement of the lateral chains of p10 is important for the function thereof, the latter would be lost when p17 is synthesised by Drosophila from L-aa. For this reason, it was decided to generate construct p18, wherein the peptide sequence of SEQ ID NO: 10 was inverted, leading to a retro-inverse peptide (Chorev & Goodman, 1995; P. M. Fischer, 2003). At the time when these transgenes were generated, the smallest constructs described in the literature encoded peptides with more than 20 amino acids, which is more than twice the size of peptides p17 and p18 (which have only ten amino acids). For this reason, construct p19 was generated, which combined the constructs of peptides p17 and p18, leading to a peptide with 19 amino acids. The three constructs were microinjected in the precursors of the germinal line of Drosophila embryos, leading to 10 lines of transgenic flies for each transgene.
The transgenic flies obtained were crossed with the GMR-Gal4 UAS-CTG(480)/CyO and Mhc-Gal4 UAS-CTG(480)/TM6b recombinant fly lines generated during this invention, which directed the expression of the CTG repeats in the eye and the muscle, respectively. As in the case of the sev-Gal4 UAS-CTG(480)/+ flies, the adult GMR-Gal4 UAS-CTG(480)/UAS-GFP flies presented a strong rough eye phenotype. […] However, the opposite phenomenon occurred at 25° C. and at 29° C. […] Given that changes in temperature affect the expression of the CTG(480) transgenes and peptides p17-p19 in a different manner, since the latter are inserted in different regions of the genome, there may be a relation between the quantity of peptide and of repeats that must be reached, whereafter p10 becomes toxic.

[4] = 100-μg dose, one mouse just before it died

C[C@@H](NC(=O)[C@@H](Cc1ccc(O)cc1)NC(=O)[C@H]1CCCN1C(=O)[C@H]1CCCN1)C(=O)N[C@H](Cc1c[nH]c2ccccc12)C(=O)N[C@H](CCC(=O)O)C(=O)O [p10] (H-[dP][dP][dY][dA][dW][dE]-OH)
visual autopsy and histological analysis of the muscles vs DMSO controls (FVB wild strain mice; 0.5, 1, 10, 100 μg i.m., 4 weeks after injection): did not reveal significant differences | urea and GPT in the blood vs controls (FVB wild strain mice; 10-μg and 100-μg doses i.m.): even higher values of urea and GPT | time of death after the injection (FVB wild strain mice; 100-μg dose): approximately 11 days | mice that died (FVB wild strain mice; 100-μg dose, 6 mice per dose): two | CPK in blood, times greater than the control with DMSO (FVB wild strain mice; [4]): 15 times | CPK in blood, times greater than the upper limit of the standard values (FVB wild strain mice; [4]): 28 times | urea, creatinine, CPK and GGT in the blood (FVB wild strain mice; [4]): extremely high values

p1: defined hexapeptide obtained following deconvolution of the D-amino acid combinatorial library ([dC][dP][dY][dA][dQ][dE])
Treated born/Control born [1]: 0.3

p2: defined hexapeptide obtained following deconvolution of the D-amino acid combinatorial library ([dC][dP][dY][dA][dW][dE])
Treated born/Control born [1]: —

p3: defined hexapeptide obtained following deconvolution of the D-amino acid combinatorial library ([dC][dP][dY][dT][dQ][dE])
Treated born/Control born [1]: 0.8

p4: defined hexapeptide obtained following deconvolution of the D-amino acid combinatorial library ([dC][dP][dY][dT][dW][dE])
Treated born/Control born ([2]; 62 μM): —

p6: defined hexapeptide obtained following deconvolution of the D-amino acid combinatorial library ([dC][dQ][dY][dA][dW][dE])
Treated born/Control born ([2]; 25 μM): —

p7: defined hexapeptide obtained following deconvolution of the D-amino acid combinatorial library ([dC][dQ][dY][dT][dQ][dE])
Treated born/Control born [1]: 1.4

p8: defined hexapeptide obtained following deconvolution of the D-amino acid combinatorial library ([dC][dQ][dY][dT][dW][dE])
Treated born/Control born ([2]; 57 μM): 0.9

p9: defined hexapeptide obtained following deconvolution of the D-amino acid combinatorial library ([dP][dP][dY][dA][dQ][dE])
Treated born/Control born [1]: 2.0

p11: defined hexapeptide obtained following deconvolution of the D-amino acid combinatorial library ([dP][dP][dY][dT][dQ][dE])
destructuration of CUG23 probe, comparative 2-aminopurine assay (2-AP-(CUG)23 RNA): significant levels of specificity and efficacy | Treated born/Control born [1]: 0.8

p12: defined hexapeptide obtained following deconvolution of the D-amino acid combinatorial library ([dP][dP][dY][dT][dW][dE])
destructuration of CUG23 probe, comparative 2-aminopurine assay (2-AP-(CUG)23 RNA): significant levels of specificity and efficacy | Treated born/Control born [1]: 3.0

p13: defined hexapeptide obtained following deconvolution of the D-amino acid combinatorial library ([dP][dQ][dY][dA][dQ][dE])
Treated born/Control born [1]: 0.8

p14: defined hexapeptide obtained following deconvolution of the D-amino acid combinatorial library ([dP][dQ][dY][dA][dW][dE])
Treated born/Control born ([2]; 40 μM): 1.8

p16: defined hexapeptide obtained following deconvolution of the D-amino acid combinatorial library ([dP][dQ][dY][dT][dW][dE])
Treated born/Control born ([2]; 38.5 μM): 0.4

p17: endogenously expressed ten amino acid peptide: initial Methionine, three spacer Glycines and the direct sequence of p10 (MGGGPPYAWE)
rough eye phenotype on co-expression with CTG(480) ([3]; 19° C. and 21° C.): not | transgenic lines assayed that modified the phenotype of GMR-Gal4 UAS-CTG(480) flies ([3]; in vivo): none of the five lines
